The numbers were not newly measured in patent publication US20100190757A1, “COMBINATION PREPARATION FOR ORAL CONTREACEPTION AND ORAL THERAPY OF DYSFUNCTIONAL UTERINE BLEEDING CONTAINING ESTRADIOL VALERATE AND DIENOGEST AND METHOD OF USING SAME” (priority 2005, published 2010), which cites them from elsewhere.

This data set concerns dysfunctional uterine bleeding. Conditions: for duration of the bleeding period: 6 anovulatory women (14 days, 12th to 25th day of cycle) and ten ovulatory women (20 days, 5th to 25th day), three times daily, both groups; for reliable contraception: same regimen, anovulatory and ovulatory women.

As to `CC(=O)O[C@]1(C(C)=O)CC[C@H]2[C@@H]3C[C@H](C)C4=CC(=O)CC[C@]4(C)[C@H]3CC[C@@]21C` [medroxyprogesterone acetate], the “duration of the bleeding period” value is recorded as “reduced” and the reliable contraception result is listed as “not attained”.

`C#C[C@]1(O)CC[C@H]2[C@@H]3CCC4=CC(=O)CC[C@@H]4[C@H]3CC[C@@]21C` [norethisterone]: the “duration of the bleeding period” value is “reduced” and the reliable contraception entry is “not attained”.
